# Measured values from patent publication US9828630B2, “Methods of enhancing genetic diagnosis” (BioLamina AB, priority 2011, dated 2017).
# “Also recorded” adds a separate entry of the source.
# Legend:
# [1] = tested on: human ES and iPS cells; settings: human ES cells grown on laminin-511; cited from earlier work
# [2] = tested on: human ES cells; assay: Cell adhesion assay, 1 hour after plating on coated plates; type: cell-based
# Procedure: (§1) The assay was performed as described (Extracellular Matrix Protocols, 2000). Briefly, 96-well plates were coated by extracellular matrix proteins as described above and blocked by O3 medium containing bovine serum albumin. The ES cells were plated at a cell density of 600 cell/mm^2 upon extracellular matrix-coated plates and were left to adhere for either 1 hour or 1 day at the cell incubator. Non-adherent cells were washed away, and adherent cells were fixed for 20 min by 5% glutaraldehyde, stained by 0.1% Crystal Violet.
# Briefly, 96-well plates were coated by extracellular matrix proteins as described above and blocked by O3 medium containing bovine serum albumin. The ES cells were plated at cell density of 50,000 cells/cm^2 onto extracellular matrix-coated plates and left to adhere for 1 hour in a cell incubator. After that the plates were washed 3 times with the medium to remove the non-adherent cells, and then the adherent cells were fixed for 20 minutes by 5% glutaraldehyde, stained by 0.1% Crystal Violet. (Kebo Lab, Spanga, Sweden, http://www.kebolab.se). After one hour and 3 washes with water, Crystal Violet was extracted with 10% acetic acid and quantified by measuring optical density at 570 nm. All the experiments were performed in quadruplicate.
# [3] = tested on: human ES cells; assay: Cell survival assay, 24 hours (1 day) after plating from single cell suspension; type: cell-based; settings: for survival / attachment of dissociated hES cells 24 hours (one day) after plating: single cell suspension, O3 medium, no ROCK inhibitor
# Procedure: as §1
# (§2) The survival assay was performed as described for the cell adhesion assay above, except that the cells were left in the cell incubator for 24 hours. For inhibition of survival assay, the cells were kept in a medium with function blocking antibodies at the concentrations recommended by the manufacturer or pathway inhibitors at concentrations indicated in the text for 30 minutes, and then plated on the coated dishes. All the experiments were performed in quadruplicate.
# Pluripotent hES cells express α1, α5, β1, β2 and γ1 laminin chains. To compare the adhesion and clonal survival of hES cells plated from single cell suspension to different coating substrata, hES cells growing as monolayers on LN-511 or as clusters on a feeder layer were trypsinized into single cell suspension in O3 medium and plated on cell culture dishes coated with Matrigel, LN-111, LN-511, LN-521 or a mixture of LN-511 and LN-521, in the absence or presence of a ROCK inhibitor (Y-27632) and analyzed after 24 hours.
# [4] = tested on: mouse ES cells; settings: without LIF or feeder cells; cited from earlier work
# [5] = tested on: hES cells; assay: Clonal survival of individualized hES cells at 250 cells per cm^2; type: cell-based, human; settings: laminin-521/E-Cadherin matrix
# Procedure: hES cells were plated in mTeSR1 medium on different coatings at a density of 250 cells per cm^2 and monitored after 5 days in culture using an alkaline phosphatase staining kit.
# Next, combinations of laminin-521 and E-Cadherin were tested to determine whether the combinations could sustain clonal survival of the cells. Fixed amounts of laminin-521 were used for the cell culture dish coating in combination with titrated E-Cadherin.
# Additional tests were performed to test the effects of various modifications to the mTeSR1 medium. A mixture of E-Cadherin to laminin-521 in a ratio of about 1:10 w/w was used to coat the plates. […] Time-lapse photography of the cells confirmed that laminin-521/E-Cadherin coatings facilitated cell survival through proliferation of the single cells, not through the aggregation of different cells.
# [6] = tested on: Akt and MEK1; assay: Western blot of inhibitor treated and control cells one hour after plating on LN-521; type: cell-based, human; settings: one hour after plating on LN-521, FIG. 18 and 19
# Procedure: HS 181 cells were trypsinized into single cell suspension as described above. For inhibition experiments, the cells were kept in O3 medium with blocking antibodies or pathway inhibitors for 30 minutes and then […] cells were plated on 35 mm dishes precoated with the appropriate matrix coating. For other experiments, same number of cells was plated directly after trypsinization. In all cases the cells were allowed to spread for 1 hour at 37° C., 5% CO2. After two washings in ice-cold PBS, the plates with cells were snap frozen in liquid nitrogen and stored at -80° C. To prepare samples for western blots and ELISA, the plates were slowly thawed and kept on ice with 100-150 μl of lysis buffer (50 mM Tris-HCl, pH7.5, 150 mM NaCl, 0.5% deoxycholate, 0.5% SDS, 1% Triton X-100, 1% Igepal, CompleteTM (Roche) and Phospho-StopTM (Roche)) on top. Then, the cells were scraped, pipetted and sheared through a 27 G 3⁄4'' needle. After that, the cell pellets were clarified by centrifugation at 16,100 rcf for 15 minutes at 4° C. For western blots, 4-12% gradient gels were used for SDS electrophoresis and the proteins were transferred to PVDF membranes. The membrane was hybridized with the antibody of interest according to the manufacturer's instructions. […] For the densitometry analysis the films were scanned at 2,400 dpi and analyzed by the […]5500 program (1 D-Multi Line densitometry mode). […]
# [7] = tested on: human ES cells on LN-521; assay: Inhibition of survival assay on LN-521 (function blocking antibodies, pathway inhibitors); type: cell-based; settings: medium contained bFGF, FIG. 16
# Procedure: as §2
compound,measurement,setting,value
LN-511: human recombinant laminin-511 coating,time hES cells maintain pluripotency and can generate teratomas in SCID mice,[1],over 3 months
same,adhesion of human ES cells after 1 hour,"[2]; O3 medium without any additives, without Y-27632, FIG. 6",roughly the same
same,spreading of the cells after one hour compared with Matrigel or LN-111,"[2]; dissociated hES cells, not shown",clearly better
same,survival / attachment of dissociated hES cells 24 hours (one day) after plating,[3],did so as single cells; also recorded: very few
same,survival / attachment of dissociated hES cells 24 hours (one day) after plating,[3]; listed as human r-laminin-511,at a less extent
same,survival / attachment of dissociated hES cells 24 hours (one day) after plating,[3]; listed as laminin-511,in most cases
same,time of self-renewal of mouse ES cells,[4],over 5 months
albumin,effect of 2× increase in albumin concentration in mTeSR1 on clonal survival,[5],significantly improved clonal survival
"LN-111: mouse laminin-111 (Invitrogen), indicated as LN-111 if not otherwise stated",survival / attachment of dissociated hES cells 24 hours (one day) after plating,[3],did not survive; also recorded: almost no cells had survived
same,survival / attachment of dissociated hES cells 24 hours (one day) after plating,[3]; listed as mouse laminin-111,almost no cells remained attached
COc1cccc(-c2cc(=O)c3ccccc3o2)c1N [PD 98059],efficacy of inhibitor treatment by western blot,[6],confirmed
same,survival of hES cells 24 hours after plating on LN-521 with pathway inhibitor,[7],did not affect the survival that severely
"human recombinant LN-111: human recombinant laminin of α1, β1 and γ1 chains from triple transfected HEK293 cells",survival / attachment of dissociated hES cells 24 hours (one day) after plating,[3],failed to survive
"LN-121: human recombinant laminin of α1, β2 and γ1 chains from triple transfected HEK293 cells",survival / attachment of dissociated hES cells 24 hours (one day) after plating,[3],failed to survive
C[C@@H](N)[C@H]1CC[C@H](C(=O)Nc2ccncc2)CC1 [Y-27632],attachment / survival of hES cells 24 hours after plating in presence of ROCK inhibitor,"[3]; O3 medium with Y-27632, Matrigel, LN-111, LN-511, LN-521 and mixture coatings",remained attached on all 5 coatings; also recorded: survived on all surfaces
same,cell shape 24 hours after plating on LN-521,[3]; absence or presence of ROCK inhibitor,spindle or crescent like shape
